Source: ChEMBL document CHEMBL4145579, “Plasmodial Kinase Inhibitors: License to Cure?” (J Med Chem, 2018)
Values belong to the compound of their own block, whether it stands above or below them.

What was measured:
Plasmodium falciparum [1] = experiment: Antiplasmodial activity against Plasmodium falciparum NF54; assay type: functional, organism-based
[2] = Inhibition of Plasmodium falciparum 3D7 6xHis-tagged PI3K helica domain expressed in Escherichia coli by Western blot analysis
Plasmodium berghei [3] = experiment: Antiplasmodial activity Plasmodium berghei infected in ip dosed mouse; assay type: functional
[4] = target: T1, Calcium-dependent protein kinase 1 (Plasmodium falciparum, UniProt P62344); experiment: Inhibition of Plasmodium falciparum recombinant His-tagged CDPK1 expressed in Escherichia coli BL21(DE3) after 1 hr in presence of [gamma33P]ATP by scintillation proximity assay
[5] = target: Cyclin-dependent kinase 5/CDK5 activator 1 (Homo sapiens) (UniProt Q00535+Q15078); experiment: Inhibition of recombinant human N-terminal His6-tagged full length CDK5/recombinant human N-terminal GST-tagged full length p25 at 10 uM; assay type: protein-complex assay
[6] = Inhibition of recombinant Plasmodium vivax PI4K
Plasmodium berghei [7] = experiment: Antiplasmodial activity Plasmodium berghei infected in po dosed mouse; assay type: functional
Plasmodium falciparum [8] = experiment: Antiplasmodial activity drug-sensitive Plasmodium falciparum 3D7 infected in po dosed humanized SCID mouse assessed as decrease in blood parasitemia administered once daily for 4 days measure on day 7 by flow cytometric method; assay type: functional
[9] = target: T2, Calcium-dependent protein kinase 4 (Plasmodium falciparum (isolate 3D7), UniProt Q8IBS5); experiment: Inhibition of Plasmodium falciparum His-tagged CDPK4 expressed in Escherichia coli BL21(DE3) using […] as substrate after 10 mins in presence of ATP
T2 sequence (Q8IBS5 whole entry): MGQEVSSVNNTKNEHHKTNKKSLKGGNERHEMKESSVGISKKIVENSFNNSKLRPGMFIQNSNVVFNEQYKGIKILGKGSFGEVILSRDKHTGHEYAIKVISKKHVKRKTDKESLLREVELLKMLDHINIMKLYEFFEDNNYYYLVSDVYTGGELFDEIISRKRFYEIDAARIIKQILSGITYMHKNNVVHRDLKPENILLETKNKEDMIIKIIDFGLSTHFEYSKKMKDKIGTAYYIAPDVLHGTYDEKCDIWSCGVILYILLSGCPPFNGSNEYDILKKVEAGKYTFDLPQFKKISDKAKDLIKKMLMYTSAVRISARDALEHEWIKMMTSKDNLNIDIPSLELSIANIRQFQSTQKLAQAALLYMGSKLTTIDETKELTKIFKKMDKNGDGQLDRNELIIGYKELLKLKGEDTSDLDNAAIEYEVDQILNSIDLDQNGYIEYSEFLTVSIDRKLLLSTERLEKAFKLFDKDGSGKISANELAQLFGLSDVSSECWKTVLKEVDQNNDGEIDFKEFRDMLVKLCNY

Plasmodium falciparum [10] = experiment: Antiplasmodial activity against Plasmodium falciparum FCB infected in human erythrocytes after 30 mins by FACS analysis; assay type: functional, organism-based; conditions: 0.5 h
[11] = target: T1, Calcium-dependent protein kinase 1; experiment: Inhibition of Plasmodium falciparum recombinant CDPK1 expressed in Escherichia coli expression system after 1 hr in presence of [gamma33P]ATP by scintillation proximity assay
[12] = target: Mitogen-activated protein kinase 14 (Homo sapiens) (UniProt Q16539); experiment: Inhibition of recombinant human N-terminal GST-tagged full length SAPK2alpha expressed in Escherichia coli at 10 uM
[13] = target: Fibroblast growth factor receptor 1 (Homo sapiens) (UniProt P11362); experiment: Inhibition of recombinant human N-terminal GST-tagged FGFR1 (456 to 765 residues) expressed in Escherichia coli at 10 uM
Plasmodium falciparum [14] = experiment: Inhibition of Plasmodium falciparum NF54 exflagellation measured on day 15 post parasite growth; assay type: functional, organism-based; conditions: NF54, 360 h
Plasmodium falciparum [15] = experiment: Antiplasmodial activity against mature gametocytes of Plasmodium falciparum 3D7 […]; assay type: functional, organism-based
[16] = Inhibition of Plasmodium falciparum PKG
Plasmodium falciparum [17] = experiment: Antiplasmodial activity against mature gametocytes of Plasmodium falciparum NF54 […] by standard membrane feeding assay; assay type: functional, organism-based
Plasmodium falciparum [18] = experiment: Antiplasmodial activity against Plasmodium falciparum infected in CD1 mouse at 100 mg/kg, po bid for 4 days; assay type: functional
Plasmodium falciparum [19] = experiment: Antiplasmodial activity against chloroquine-sensitive Plasmodium falciparum D6 infected in human red blood cells preincubated for 24 hrs followed by [3H]-hypoxanthine addition measured after 18 hrs by scintillation counting; assay type: functional, organism-based
[20] = Inhibition of Plasmodium falciparum recombinant expressed in Toxoplasma gondii after 60 mins in presence of [33P]ATP by scintillation counting
Plasmodium falciparum [21] = experiment: Antiplasmodial activity against Plasmodium falciparum NF54 gametocyte form infected in human erythrocytes by scintillation counting-based [3H]-hypoxanthine incorporation assay; assay type: functional, organism-based
Plasmodium falciparum [22] = experiment: Antiplasmodial activity against chloroquine-sensitive Plasmodium falciparum Dd2 gametocyte form infected in human erythrocytes by scintillation counting-based [3H]-hypoxanthine incorporation assay; assay type: functional, organism-based

T1 sequence (P62344 whole entry): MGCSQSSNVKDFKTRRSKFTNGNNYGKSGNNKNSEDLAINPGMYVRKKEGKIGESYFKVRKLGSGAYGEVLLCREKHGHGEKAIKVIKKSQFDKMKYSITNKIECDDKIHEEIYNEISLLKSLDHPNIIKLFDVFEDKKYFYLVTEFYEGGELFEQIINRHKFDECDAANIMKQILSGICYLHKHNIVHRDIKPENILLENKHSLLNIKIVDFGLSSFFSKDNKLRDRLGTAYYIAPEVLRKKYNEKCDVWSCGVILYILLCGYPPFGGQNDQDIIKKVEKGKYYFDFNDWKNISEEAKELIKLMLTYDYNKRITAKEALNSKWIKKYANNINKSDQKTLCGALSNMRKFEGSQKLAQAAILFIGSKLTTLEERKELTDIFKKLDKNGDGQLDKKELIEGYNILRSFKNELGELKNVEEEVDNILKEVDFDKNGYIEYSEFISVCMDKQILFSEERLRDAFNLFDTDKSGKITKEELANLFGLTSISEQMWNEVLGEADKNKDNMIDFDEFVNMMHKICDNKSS
Sequence of Cyclin-dependent kinase 5/CDK5 activator 1 (Homo sapiens) (Q00535 whole entry): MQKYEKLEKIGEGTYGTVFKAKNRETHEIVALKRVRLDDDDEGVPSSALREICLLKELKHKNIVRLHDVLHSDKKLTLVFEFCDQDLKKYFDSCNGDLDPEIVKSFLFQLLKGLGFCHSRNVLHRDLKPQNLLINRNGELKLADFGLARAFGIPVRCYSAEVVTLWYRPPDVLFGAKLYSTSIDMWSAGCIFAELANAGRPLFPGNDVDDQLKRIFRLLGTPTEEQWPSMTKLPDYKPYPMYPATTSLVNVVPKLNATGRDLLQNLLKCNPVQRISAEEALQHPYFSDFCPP
Sequence of Cyclin-dependent kinase 5/CDK5 activator 1 (Homo sapiens) (Q15078 99-307 partner limits assumed): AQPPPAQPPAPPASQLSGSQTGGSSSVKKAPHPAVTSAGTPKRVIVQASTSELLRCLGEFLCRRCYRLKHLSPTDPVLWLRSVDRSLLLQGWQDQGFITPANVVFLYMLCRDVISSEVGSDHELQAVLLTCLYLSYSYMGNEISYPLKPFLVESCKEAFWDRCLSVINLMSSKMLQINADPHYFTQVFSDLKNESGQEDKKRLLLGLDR
Sequence of Mitogen-activated protein kinase 14 (Homo sapiens) (Q16539 whole entry, the tested form may be a part): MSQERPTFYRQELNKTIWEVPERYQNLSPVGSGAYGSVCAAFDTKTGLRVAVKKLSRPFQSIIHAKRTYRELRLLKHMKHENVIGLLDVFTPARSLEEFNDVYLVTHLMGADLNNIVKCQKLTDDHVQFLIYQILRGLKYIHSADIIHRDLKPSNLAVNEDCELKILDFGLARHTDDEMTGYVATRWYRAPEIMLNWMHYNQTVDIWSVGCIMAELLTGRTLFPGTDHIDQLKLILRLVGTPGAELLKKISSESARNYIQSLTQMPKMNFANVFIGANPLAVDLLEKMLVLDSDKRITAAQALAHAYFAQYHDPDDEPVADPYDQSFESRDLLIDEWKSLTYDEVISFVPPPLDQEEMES
Sequence of Fibroblast growth factor receptor 1 (Homo sapiens) (P11362 22-822 limits assumed): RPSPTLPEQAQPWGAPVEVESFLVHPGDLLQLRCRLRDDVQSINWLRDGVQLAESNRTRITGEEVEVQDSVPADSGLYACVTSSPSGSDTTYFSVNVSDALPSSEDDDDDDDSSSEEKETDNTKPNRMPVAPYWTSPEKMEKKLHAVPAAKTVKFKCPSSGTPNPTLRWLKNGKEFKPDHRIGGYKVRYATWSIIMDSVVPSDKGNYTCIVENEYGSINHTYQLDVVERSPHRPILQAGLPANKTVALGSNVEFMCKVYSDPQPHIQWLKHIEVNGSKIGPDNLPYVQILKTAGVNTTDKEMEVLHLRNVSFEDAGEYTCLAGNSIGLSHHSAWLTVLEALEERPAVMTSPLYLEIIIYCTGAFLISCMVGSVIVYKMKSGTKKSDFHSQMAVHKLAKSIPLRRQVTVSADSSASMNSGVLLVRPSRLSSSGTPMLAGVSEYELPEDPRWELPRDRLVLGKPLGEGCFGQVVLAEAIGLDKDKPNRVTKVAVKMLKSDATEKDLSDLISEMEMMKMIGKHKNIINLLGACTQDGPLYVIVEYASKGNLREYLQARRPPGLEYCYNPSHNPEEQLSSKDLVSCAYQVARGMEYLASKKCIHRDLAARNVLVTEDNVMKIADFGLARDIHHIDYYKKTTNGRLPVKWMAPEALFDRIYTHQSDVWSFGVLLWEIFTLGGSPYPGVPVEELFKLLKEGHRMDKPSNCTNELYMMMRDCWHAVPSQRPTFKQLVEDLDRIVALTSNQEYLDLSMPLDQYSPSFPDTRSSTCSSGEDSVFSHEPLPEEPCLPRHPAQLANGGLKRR

IC50 [6]: 3.4 nM
SMILES: CS(=O)(=O)c1ccc(-c2cnc(N)c(-c3ccc(C(F)(F)F)nc3)c2)cc1 [MMV-048]
ED90 (Plasmodium berghei [7]): 0.8 mg/kg
ED90 (Plasmodium falciparum [8]): 0.57 mg/kg

IC50 [6]: 10 nM
SMILES: COc1cc(-c2cc(-c3ccc(S(C)(=O)=O)cc3)cnc2N)ccc1O
ED90 (Plasmodium berghei [7]): 43.7 mg/kg

EC50 (Plasmodium falciparum [1]): 8000 nM
SMILES: CCOc1ccc2cc(-c3nn(CC4CCN(C)CC4)c4ncnc(N)c34)ccc2c1
EC50 (Plasmodium falciparum [14]): 47 nM

IC50 (Plasmodium falciparum [19]): > 14000 nM
SMILES: O=C1Nc2ccc(Br)cc2/C1=C\C(=O)c1ccc(F)cc1

IC50 (Plasmodium falciparum [1]): 3000 nM
IC50 [2]: 25000 nM
SMILES: O=c1cc(N2CCOCC2)oc2c(-c3ccccc3)cccc12 [LY-294002]

IC50 (Plasmodium falciparum [15]): 490 nM
IC50 (Plasmodium falciparum [21]): 490 nM
IC50 (Plasmodium falciparum [22]): 1300 nM
SMILES: CN1CCC(c2cc(-c3ccncc3)c(-c3ccc(F)cc3)[nH]2)CC1
IC50 [20]: 3.5 nM

Further lines, the compound ahead of its results:

SMILES: C[C@H]1[C@@H](O)O[C@@H]2O[C@@]3(C)CC[C@H]4[C@H](C)CC[C@@H]1[C@@]24OO3 [ARTENIMOL]
IC50 (Plasmodium falciparum [1]): 3 nM
IC50 [2]: 4.1 nM
ED50 (Plasmodium berghei [3]): 1.95 mg/kg

SMILES: CCCNc1ccc2ncc(-c3cccc(O)c3)n2n1
Ki [4]: 37 nM
inhibition [5]: 89%

SMILES: CN1CCN(CCCN2c3ccccc3Sc3ccc(C(F)(F)F)cc32)CC1 [TRIFLUOPERAZINE]
Ki [9]: 150000 nM
EC50 (Plasmodium falciparum [10]): 1900 nM

SMILES: N[C@H]1CC[C@H](Nc2nc(Nc3ccc(C(=O)N4CCCCC4)cc3)c3ncn(-c4cccc(F)c4)c3n2)CC1 [PURFALCAMINE]
IC50 [11]: 13 to 17 nM

SMILES: Cc1ccc(C(=O)c2c(N)c(C(N)=O)c3ccccn23)cc1
Ki [4]: 262 nM
inhibition [12]: 75%
inhibition [13]: 54%

SMILES: Cc1cn2c(-c3ccnc(NCC4CC4)n3)c(-c3ccc(F)c(NS(C)(=O)=O)c3)nc2cc1CN(C)C
IC50 (Plasmodium falciparum [15]): 2.1 nM
IC50 [16]: 0.16 nM
IC50 (Plasmodium falciparum [17]): 41 nM
Activity (Plasmodium falciparum [18]): 99.9%

SMILES: CN(C)Cc1ccn2c(-c3ccnc(NCC4CC4)n3)c(-c3cccc(S(C)(=O)=O)c3)nc2c1
IC50 (Plasmodium falciparum [15]): 102 nM
IC50 [16]: 0.13 nM

SMILES: CCOc1ccc2cc(-c3nn(CC4CCNCC4)c4ncnc(N)c34)ccc2c1
EC50 (Plasmodium falciparum [14]): 35 nM
EC50 (Plasmodium falciparum [1]): 2000 nM
